These results are taken from patent US7468353B2, “Biologically active substance of a vasoactive intestinal peptide for treating interstitial lung diseases” (Mondobiotech Laboratories Anstalt, priority 2003, dated 2008).

The target of assay [1] is T1, PACAP receptor type I (Homo sapiens, UniProt P41586).
T1 sequence (P41586 21-468): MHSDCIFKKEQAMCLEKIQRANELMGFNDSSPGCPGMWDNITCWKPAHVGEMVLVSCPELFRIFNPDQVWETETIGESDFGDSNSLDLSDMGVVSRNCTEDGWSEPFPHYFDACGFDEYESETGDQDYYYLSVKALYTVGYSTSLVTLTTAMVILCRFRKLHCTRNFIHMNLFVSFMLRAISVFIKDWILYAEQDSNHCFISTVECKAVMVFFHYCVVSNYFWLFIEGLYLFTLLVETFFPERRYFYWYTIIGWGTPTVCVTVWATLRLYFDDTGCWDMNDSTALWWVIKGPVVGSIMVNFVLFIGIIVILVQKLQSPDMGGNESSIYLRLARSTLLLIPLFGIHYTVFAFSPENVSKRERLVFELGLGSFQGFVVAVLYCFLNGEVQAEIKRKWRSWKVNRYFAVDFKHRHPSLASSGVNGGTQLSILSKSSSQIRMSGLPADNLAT
As to conditions: cited from earlier work.

The test system of assay [2] is PACAP receptor type II. As to conditions: PACAP versus VIP; cited from earlier work.
Assay [3] has as its system CD 83 surface molecules on human dentritic cells. Description: Effect of VIP on maturation of human dentritic cells: CD 83 surface molecules, fluorescence-activated cell analysis. It counts as cell-based. The text has this: (§1) FIGS. 1-11 show the effect of VIP on the maturation of human dentritic cells. […] is a characteristic surface protein on mature dentritic cells. Low rates of said protein indicate non-maturation of cells and thus, the inability to execute their biological function. […] Said reduction is indicated by the value M1 38.22—when measuring after application of 9.1 μmol—and compared to the value M1 81.26 (FIG. 10) of untreated cells (FIG. 1)—in the fluorescence-activated cell analysis. This procedure consists of searching the cell surfaces with the help of fluorescence-marked antibodies for the corresponding antigens (here: CD 83).

Assay [4] concerns MHC I surface molecules on human dentritic cells. As to the kind of experiment: Effect of VIP on human dentritic cells: MHC I surface molecules, fluorescence-activated cell analysis. It counts as cell-based.
For assay [5], the system named is MHC II surface molecules on human dentritic cells. Description: Effect of VIP on human dentritic cells: MHC II surface molecules, fluorescence-activated cell analysis. It counts as cell-based.
Text: [The procedure below names another target; the source lists this target under the same test.] as §1

Where [6] appears, read: VIP 9.1 μM, marker All, FIG. 11.

Regarding “His-Ser-Asp-Gly-Ile-Phe-Thr-Asp-Ser-Tyr-Ser-Arg-Tyr-Arg-Lys-Gln-Met-Ala-Val-Lys-Lys-Tyr-Leu-Ala-Ala-Val-Leu-Gly-Lys-Arg-Tyr-Lys-Gln-Arg-Val-Lys-Asn-Lys [PACAP]”, the “affinity of receptor type I” value in assay [1] is given as “high affinity”. In addition, in assay [2], the “affinity of receptor type II” value is given as “similar”.
On to “His-Ser-Asp-Ala-Val-Phe-Thr-Asp-Asn-Tyr-Thr-Arg-Leu-Arg-Lys-Gln-Met-Ala-Val-Lys-Lys-Tyr-Leu-Asn-Ser-Ile-Leu-Asn [VIP]”, for which, in assay [3] (VIP 1 μM, FIG. 6), the “CD 83 % Gated, marker All” value is reported as 100.00%; the “CD 83 Mean, marker All” value came out at 108.13; the “CD 83 % Gated, marker M1” value worked out at 69.70%; the “CD 83 Mean, marker M1” value is on record as 137.30. In assay [3] (VIP 9.1 μM, FIG. 10), the “CD 83 % Gated, marker All” value was determined as 100.00%; the “CD 83 Mean, marker All” value is 76.48; the “CD 83 % Gated, marker M1” value is 38.22%; the “CD 83 Mean, marker M1” value was 143.06. Besides, in assay [3] (after application of 9.1 μmol VIP, untreated cells 81.26), the “value M1 for CD 83” value came out at 38.22. In addition, in assay [3] (application of 1 μmol VIP (FIG. 5)), the “effect on CD 83 surface molecules” value is recorded as “dramatic reduction”. For the same substance, in assay [3] (application of 9.1 μmol VIP (FIG. 9)), the “effect on CD 83 surface molecules” value is recorded as “dramatic reduction”. The “value M1 for MHC 1” value in assay [4] (9.1 μmol VIP, untreated cells 85.59) is 70.57. In assay [4] (VIP 1 μM, marker All, FIG. 7), the “MHC I % Gated, marker All” value came to 100.00% and the “MHC I Mean, marker All” value was determined as 200.61. In assay [4] (VIP 1 μM, marker M1, FIG. 7), the “MHC I % Gated, marker M1” value is listed as 78.69% and the “MHC I Mean, marker M1” value is on record as 242.97. Moreover, in assay [4] (setting [6]), the “MHC 1 % Gated, marker All” value stood at 100.00% and the “MHC 1 Mean, marker All” value stood at 136.67. In assay [4] (VIP 9.1 μM, marker M1, FIG. 11), the “MHC 1 % Gated, marker M1” value turned out to be 70.57% and the “MHC 1 Mean, marker M1” value is 174.61. Further, the “inhibition of MHC I surface molecules compared with CD 83” value in assay [4] (same dose of VIP) is listed as “far less inhibited”. Further, in assay [5] (9.1 μmol VIP, untreated cells 83.94), the “value M1 for MHC II” value is listed as 77.73. Also, in assay [5] (VIP 1 μM, FIG. 8), the “MHC II % Gated, marker All” value is listed as 100.00%; the “MHC II Mean, marker All” value is 170.33; the “MHC II % Gated, marker M1” value amounted to 77.41%; the “MHC II Mean, marker M1” value is given as 207.21. In assay [5] (VIP 9.1 μM, FIG. 12), the “MHC II % Gated, marker All” value was determined as 100.00%; the “MHC II Mean, marker All” value is on record as 175.73; the “MHC II % Gated, marker M1” value was 77.73%; the “MHC II Mean, marker M1” value is on record as 213.25. Besides, the “inhibition of MHC II surface molecules compared with CD 83” value in assay [5] (same dose of VIP) is on record as “far less inhibited”. In assay [1], the “affinity of receptor type I” value is listed as “very low affinity”. For the same substance, the “affinity of receptor type II” value in assay [2] is “similar”.
